Test results as given in PubChem BioAssay AID1963829 (Molecular Pharmacology Branch, DTP, NCI, 2024).

Test system: 935938-334-R-J1-PDC complex spheroid viability
Assay: Anticancer human tumor 935938-334-R-J1-PDC patient-derived small intestine adenocarcinoma cell line growth inhibition [POLQ]
Details: for IC50: curve of first compound; for viability, T/C: stronger effect = lower value
Summary of the method: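 PDC + HUVEC + MSC complex spheroids; POLQ inhibitors ± partner drugs; top conc. at/near clinical Cmax, else 10 microM (SN-38 1 microM), half-log dilutions; 37 degrees C, 5% CO2.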

[1] = second compound 0.0316 µM, first compound 0.0316 µM
[2] = second compound 0.0316 µM, first compound 0.1 µM
[3] = second compound 0.0316 µM, first compound 0.316 µM
[4] = second compound 0.0316 µM, first compound 1 µM
[5] = second compound 0.0316 µM, first compound 3.16 µM
[6] = second compound 0.0316 µM, first compound 10 µM
[7] = second compound 0.1 µM, first compound 0.0316 µM
[8] = second compound 0.1 µM, first compound 0.1 µM
[9] = second compound 0.1 µM, first compound 0.316 µM
[10] = second compound 0.1 µM, first compound 1 µM
[11] = second compound 0.1 µM, first compound 3.16 µM
[12] = second compound 0.1 µM, first compound 10 µM
[13] = second compound 0.316 µM, first compound 0.0316 µM
[14] = second compound 0.316 µM, first compound 0.1 µM
[15] = second compound 0.316 µM, first compound 0.316 µM
[16] = second compound 0.316 µM, first compound 1 µM
[17] = second compound 0.316 µM, first compound 3.16 µM
[18] = second compound 0.316 µM, first compound 10 µM
[19] = second compound 1 µM, first compound 0.0316 µM
[20] = second compound 1 µM, first compound 0.1 µM
[21] = second compound 1 µM, first compound 0.316 µM
[22] = second compound 1 µM, first compound 1 µM
[23] = second compound 1 µM, first compound 3.16 µM
[24] = second compound 1 µM, first compound 10 µM
[25] = second compound 3.16 µM, first compound 0.0316 µM
[26] = second compound 3.16 µM, first compound 0.1 µM
[27] = second compound 3.16 µM, first compound 0.316 µM
[28] = second compound 3.16 µM, first compound 1 µM
[29] = second compound 3.16 µM, first compound 3.16 µM
[30] = second compound 3.16 µM, first compound 10 µM
[31] = second compound 10 µM, first compound 0.0316 µM
[32] = second compound 10 µM, first compound 0.1 µM
[33] = second compound 10 µM, first compound 0.316 µM
[34] = second compound 10 µM, first compound 1 µM
[35] = second compound 10 µM, first compound 3.16 µM
[36] = second compound 10 µM, first compound 10 µM
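Note: spheroids exposed to drugs for seven days before viability read.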
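Throughout, for viability, T/C: 100% = DMSO vehicle control wells.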

## CCc1cc2c(N3CCc4c(cc(Cn5ccnc5)cc4-c4cn(C)nc4C(F)(F)F)C3=O)cc(C)nc2c(OC)n1 + Nc1ccc(C#CCN(C(=O)Cc2ncc(C(F)(F)F)cc2C(F)(F)F)c2ccc(F)cc2)nn1
Second compound 0.0316 µM
  IC50: > 10000 nM
Second compound 0.1 µM
  IC50: > 10000 nM
Second compound 0.316 µM
  IC50: > 10000 nM
Second compound 1 µM
  IC50: > 10000 nM
Second compound 3.16 µM
  IC50: > 10000 nM
Second compound 10 µM
  IC50: > 10000 nM
[1]
  viability, T/C: 93.5%
[2]
  viability, T/C: 62%
[3]
  viability, T/C: 63.9%
[4]
  viability, T/C: 73.7%
[5]
  viability, T/C: 74.5%
[6]
  viability, T/C: 66.7%
[7]
  viability, T/C: 67.9%
[8]
  viability, T/C: 66.2%
[9]
  viability, T/C: 57.1%
[10]
  viability, T/C: 52.9%
[11]
  viability, T/C: 70.6%
[12]
  viability, T/C: 57.8%
[13]
  viability, T/C: 74.1%
[14]
  viability, T/C: 65%
[15]
  viability, T/C: 77.6%
[16]
  viability, T/C: 60.9%
[17]
  viability, T/C: 62.3%
[18]
  viability, T/C: 63.5%
[19]
  viability, T/C: 89.8%
[20]
  viability, T/C: 60.6%
[21]
  viability, T/C: 65%
[22]
  viability, T/C: 65.5%
[23]
  viability, T/C: 56.5%
[24]
  viability, T/C: 49.1%
[25]
  viability, T/C: 85.2%
[26]
  viability, T/C: 63.3%
[27]
  viability, T/C: 62%
[28]
  viability, T/C: 58.1%
[29]
  viability, T/C: 72.2%
[30]
  viability, T/C: 56.6%
[31]
  viability, T/C: 70.5%
[32]
  viability, T/C: 75.1%
[33]
  viability, T/C: 82.3%
[34]
  viability, T/C: 72.8%
[35]
  viability, T/C: 66.4%
[36]
  viability, T/C: 61.1%

## C#Cc1c(F)ccc2cc(O)cc(-c3ncc4c(N5CC6CCC(C5)N6)nc(OCC56CCCN5CC(F)C6)nc4c3F)c12 (stereo unspecified) + Cc1cccc(N(C)C(=O)C2C(O)CCN2c2nc(C)cc(C(F)(F)F)c2C#N)c1
Second compound 0.0316 µM
  IC50: 2410 nM
Second compound 0.1 µM
  IC50: 3390 nM
Second compound 0.316 µM
  IC50: 1490 nM
Second compound 1 µM
  IC50: 1730 nM
Second compound 3.16 µM
  IC50: 2020 nM
Second compound 10 µM
  IC50: 576 nM
[1]
  viability, T/C: 89.8%
[2]
  viability, T/C: 97.8%
[3]
  viability, T/C: 65.1%
[4]
  viability, T/C: 75.2%
[5]
  viability, T/C: 40.2%
[6]
  viability, T/C: 29.7%
[7]
  viability, T/C: 80.3%
[8]
  viability, T/C: 75.2%
[9]
  viability, T/C: 62%
[10]
  viability, T/C: 60.9%
[11]
  viability, T/C: 53.4%
[12]
  viability, T/C: 39.4%
[13]
  viability, T/C: 97.5%
[14]
  viability, T/C: 88.9%
[15]
  viability, T/C: 87.6%
[16]
  viability, T/C: 54.6%
[17]
  viability, T/C: 41.9%
[18]
  viability, T/C: 33.4%
[19]
  viability, T/C: 92%
[20]
  viability, T/C: 75%
[21]
  viability, T/C: 64.3%
[22]
  viability, T/C: 64.8%
[23]
  viability, T/C: 36.5%
[24]
  viability, T/C: 35.5%
[25]
  viability, T/C: 72.5%
[26]
  viability, T/C: 81.1%
[27]
  viability, T/C: 54.4%
[28]
  viability, T/C: 70.7%
[29]
  viability, T/C: 37.3%
[30]
  viability, T/C: 31.8%
[31]
  viability, T/C: 85.4%
[32]
  viability, T/C: 73.7%
[33]
  viability, T/C: 61.5%
[34]
  viability, T/C: 38.6%
[35]
  viability, T/C: 36.6%
[36]
  viability, T/C: 29.6%

## CC1COCCN1c1cc(-c2ccnn2C)c2ccnc(-c3ccn[nH]3)c2n1 (stereo unspecified) + Nc1ccc(C#CCN(C(=O)Cc2ncc(C(F)(F)F)cc2C(F)(F)F)c2ccc(F)cc2)nn1
Second compound 0.0316 µM
  IC50: 71.5 nM
Second compound 0.1 µM
  IC50: 85.6 nM
Second compound 0.316 µM
  IC50: 86.2 nM
Second compound 1 µM
  IC50: 83.8 nM
Second compound 3.16 µM
  IC50: 86.6 nM
Second compound 10 µM
  IC50: 91.5 nM
[1]
  viability, T/C: 92.4%
[2]
  viability, T/C: 32.2%
[3]
  viability, T/C: 19.1%
[4]
  viability, T/C: 15.3%
[5]
  viability, T/C: 14.8%
[6]
  viability, T/C: 17.6%
[7]
  viability, T/C: 89.4%
[8]
  viability, T/C: 43.9%
[9]
  viability, T/C: 18.5%
[10]
  viability, T/C: 13.6%
[11]
  viability, T/C: 21.2%
[12]
  viability, T/C: 19.4%
[13]
  viability, T/C: 117%
[14]
  viability, T/C: 40%
[15]
  viability, T/C: 17.4%
[16]
  viability, T/C: 13.3%
[17]
  viability, T/C: 18.7%
[18]
  viability, T/C: 22%
[19]
  viability, T/C: 103%
[20]
  viability, T/C: 40.2%
[21]
  viability, T/C: 20.2%
[22]
  viability, T/C: 16.3%
[23]
  viability, T/C: 16.8%
[24]
  viability, T/C: 21.2%
[25]
  viability, T/C: 91.7%
[26]
  viability, T/C: 44%
[27]
  viability, T/C: 15.5%
[28]
  viability, T/C: 16.1%
[29]
  viability, T/C: 19.2%
[30]
  viability, T/C: 27.6%
[31]
  viability, T/C: 93.4%
[32]
  viability, T/C: 46.3%
[33]
  viability, T/C: 19.4%
[34]
  viability, T/C: 18.4%
[35]
  viability, T/C: 19.3%
[36]
  viability, T/C: 21.1%
